Data taken from patent US8697687B2, “Treating diseases mediated by blockade of the epithelial sodium channel with pyrazine-2-carboxamide derivatives” (Novartis AG, priority 2007, dated 2014).

Target: T1, epithelial sodium channel (ENaC) (Homo sapiens, UniProt P37088+P51168+P51170)
T1 construct: host or cells: primary Human Bronchial Epithelial cells (HBECs), air-liquid interface culture
T1 sequence (P37088 1-669): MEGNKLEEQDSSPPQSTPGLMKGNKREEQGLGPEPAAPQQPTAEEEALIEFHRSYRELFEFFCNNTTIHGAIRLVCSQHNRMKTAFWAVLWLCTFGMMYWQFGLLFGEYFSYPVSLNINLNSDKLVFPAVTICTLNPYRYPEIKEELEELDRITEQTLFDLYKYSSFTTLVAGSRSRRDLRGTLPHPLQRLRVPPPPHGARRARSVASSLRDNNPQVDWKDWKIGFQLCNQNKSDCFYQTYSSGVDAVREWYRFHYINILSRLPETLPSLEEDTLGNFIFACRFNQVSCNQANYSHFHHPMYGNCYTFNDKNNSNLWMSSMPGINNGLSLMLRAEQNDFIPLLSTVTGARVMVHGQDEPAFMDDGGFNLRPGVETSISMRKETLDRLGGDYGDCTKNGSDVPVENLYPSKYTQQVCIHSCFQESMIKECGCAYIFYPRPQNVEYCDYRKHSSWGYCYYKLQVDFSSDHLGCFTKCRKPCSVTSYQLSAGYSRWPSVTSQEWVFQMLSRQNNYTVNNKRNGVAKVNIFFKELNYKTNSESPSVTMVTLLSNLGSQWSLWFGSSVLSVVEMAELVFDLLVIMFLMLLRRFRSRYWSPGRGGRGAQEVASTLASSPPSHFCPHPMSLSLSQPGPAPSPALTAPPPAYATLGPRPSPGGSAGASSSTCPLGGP
T1 sequence (P51168 1-640): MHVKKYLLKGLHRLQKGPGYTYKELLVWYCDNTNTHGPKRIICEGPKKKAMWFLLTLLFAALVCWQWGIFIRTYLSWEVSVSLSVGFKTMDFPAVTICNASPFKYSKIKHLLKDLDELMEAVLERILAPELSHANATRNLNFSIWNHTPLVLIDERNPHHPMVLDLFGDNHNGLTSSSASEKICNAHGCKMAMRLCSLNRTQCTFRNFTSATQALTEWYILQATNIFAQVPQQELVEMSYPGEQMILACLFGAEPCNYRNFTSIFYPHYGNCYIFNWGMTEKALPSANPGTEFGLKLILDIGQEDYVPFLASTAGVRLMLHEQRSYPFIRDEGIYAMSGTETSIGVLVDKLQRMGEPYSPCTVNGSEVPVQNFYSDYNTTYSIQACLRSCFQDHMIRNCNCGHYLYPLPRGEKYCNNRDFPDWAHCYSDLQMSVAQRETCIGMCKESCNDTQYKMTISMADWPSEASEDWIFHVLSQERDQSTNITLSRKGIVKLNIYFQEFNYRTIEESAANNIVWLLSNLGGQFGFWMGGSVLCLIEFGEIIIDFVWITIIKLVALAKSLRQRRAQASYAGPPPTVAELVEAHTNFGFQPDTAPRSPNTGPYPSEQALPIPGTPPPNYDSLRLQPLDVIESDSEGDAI
T1 sequence (P51170 1-649): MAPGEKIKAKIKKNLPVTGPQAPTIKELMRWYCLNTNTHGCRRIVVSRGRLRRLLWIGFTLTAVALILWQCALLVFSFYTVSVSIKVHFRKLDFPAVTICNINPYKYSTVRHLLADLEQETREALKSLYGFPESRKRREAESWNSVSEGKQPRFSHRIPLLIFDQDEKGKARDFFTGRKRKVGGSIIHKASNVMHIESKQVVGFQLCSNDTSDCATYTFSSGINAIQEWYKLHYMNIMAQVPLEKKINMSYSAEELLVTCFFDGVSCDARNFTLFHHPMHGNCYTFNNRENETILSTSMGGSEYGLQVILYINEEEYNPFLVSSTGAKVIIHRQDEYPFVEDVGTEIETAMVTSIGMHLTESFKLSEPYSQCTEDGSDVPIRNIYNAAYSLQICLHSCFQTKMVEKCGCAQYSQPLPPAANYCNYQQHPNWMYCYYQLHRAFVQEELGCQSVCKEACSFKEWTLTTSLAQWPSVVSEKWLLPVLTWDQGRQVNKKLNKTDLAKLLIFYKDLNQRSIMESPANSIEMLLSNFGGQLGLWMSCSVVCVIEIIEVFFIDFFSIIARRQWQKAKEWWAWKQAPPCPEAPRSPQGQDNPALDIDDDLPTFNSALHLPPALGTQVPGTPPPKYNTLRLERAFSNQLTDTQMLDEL
Assay: Short circuit current (ISC) measurements in Human Bronchial Epithelial cells, inhibition of amiloride-sensitive ISC
Format: cell-based
Details: inhibition of the amiloride-sensitive ISC; Human Bronchial Epithelial cells (HBECs) at air-liquid interface; compound added to apical chamber; read-out: IC50
Method in brief: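 Well-differentiated air-liquid interface HBECs (days 7–21) in Ussing chambers, Ringer pH 7.4, 37° C, voltage clamped at 0 mV. Cumulative 3-fold apical compound additions, then 10 μM amiloride to define total amiloride-sensitive ISC. IC50 from mean % inhibition, typically duplicate inserts.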

Compound | IC50 [nM]
CC(c1ccccc1)N1CCC2(CC1)CN/C(=N\C(=O)c1nc(Cl)c(N)nc1N)N2 (centres unmarked) [Example 246, 3,5-Diamino-6-chloro-pyrazine-2-carboxylic acid [8-(1-phenyl-ethyl)-1,3,8-triaza-spiro[4.5]dec-(2E)-ylidene]-amide] | 25
Nc1nc(N)c(C(=O)/N=C2\NCC3(CC4CCC(C3)N4C(=O)c3cccc4[nH]ccc34)N2)nc1Cl (centres unmarked) [Example 252, (E)-N-(8-(1H-indole-4-carbonyl)-8-azaspiro[bicyclo[3.2.1]octane-3,4′-imidazolidine]-2′-ylidene)-3,5-diamino-6-chloropyrazine-2-carboxamide] | 28
